Laboratory results from patent US8586579B2, “Anellated pyridine compounds” (Hoffmann-La Roche Inc., priority 2010, dated 2013).
Read-outs that look alike come from different tables or passages of the source.

Key:
[1] = target: human D2 receptor (Homo sapiens (Human), UniProt P14416); test: Radioligand binding assay, [3H]-spiperone, human D2 receptor; settings: membranes of HEK293 EBNA cells expressing human D2; 0.7 nM [3H]-spiperone
Outline: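 Membranes from HEK293 EBNA cells transiently expressing human D2 were incubated 1 h at RT with ~0.7 nM [3H]-spiperone and ten compound concentrations (10 μM–0.1 nM) in Tris buffer with NaCl, MgCl2, KCl, CaCl2, EDTA, pH 7.4.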

[2] = target: human D3 receptor (Homo sapiens (Human), UniProt P35462); test: Radioligand binding assay, [3H]-spiperone, human D3 receptor; settings: membranes of HEK293 EBNA cells expressing human D3; 0.5 nM [3H]-spiperone
Outline: (§1)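 Membranes from transiently transfected HEK293 EBNA cells were incubated 1 h at RT with ten compound concentrations (10 μM-0.1 nM) and radioligand: 0.5 nM [3H]-spiperone for D3 (Tris/NaCl/Mg/Ca buffer, pH 7.4) or 1.1 nM [3H]-ketanserin for 5-HT2A (Tris/MgCl2/EGTA, pH 7.4).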

[3] = target: human 5-HT2A receptor (Homo sapiens (Human), UniProt P28223); test: Radioligand binding assay, [3H]-ketanserin, human 5-HT2A receptor
Outline: as §1

[4] = membranes of HEK293 EBNA cells expressing human 5-HT2A, 1.1 nM [3H]-ketanserin

Chain of human D2 receptor (P14416 whole entry): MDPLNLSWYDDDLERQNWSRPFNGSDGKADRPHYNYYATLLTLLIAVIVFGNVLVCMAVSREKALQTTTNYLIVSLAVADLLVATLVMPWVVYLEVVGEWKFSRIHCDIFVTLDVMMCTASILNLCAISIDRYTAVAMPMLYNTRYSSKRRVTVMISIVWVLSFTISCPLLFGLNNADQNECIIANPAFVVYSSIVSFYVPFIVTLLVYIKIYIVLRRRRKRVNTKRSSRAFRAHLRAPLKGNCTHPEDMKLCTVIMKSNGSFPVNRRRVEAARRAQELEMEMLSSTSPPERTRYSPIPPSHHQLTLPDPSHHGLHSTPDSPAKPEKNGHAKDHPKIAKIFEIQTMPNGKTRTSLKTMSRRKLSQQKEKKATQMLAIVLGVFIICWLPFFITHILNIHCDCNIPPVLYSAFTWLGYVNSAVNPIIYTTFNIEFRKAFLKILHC
Chain of human D3 receptor (P35462 whole entry): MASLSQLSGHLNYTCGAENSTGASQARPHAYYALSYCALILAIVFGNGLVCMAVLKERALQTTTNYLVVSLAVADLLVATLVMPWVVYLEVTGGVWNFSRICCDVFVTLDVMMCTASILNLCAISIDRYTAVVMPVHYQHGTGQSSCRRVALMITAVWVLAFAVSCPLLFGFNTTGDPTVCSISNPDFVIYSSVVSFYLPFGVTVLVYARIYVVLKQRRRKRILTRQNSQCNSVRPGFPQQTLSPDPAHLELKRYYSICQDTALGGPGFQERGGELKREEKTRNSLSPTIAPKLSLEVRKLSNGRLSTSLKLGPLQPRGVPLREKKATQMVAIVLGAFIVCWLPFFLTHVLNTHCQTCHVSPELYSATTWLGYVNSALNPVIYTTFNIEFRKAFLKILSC
Chain of human 5-HT2A receptor (P28223 whole entry): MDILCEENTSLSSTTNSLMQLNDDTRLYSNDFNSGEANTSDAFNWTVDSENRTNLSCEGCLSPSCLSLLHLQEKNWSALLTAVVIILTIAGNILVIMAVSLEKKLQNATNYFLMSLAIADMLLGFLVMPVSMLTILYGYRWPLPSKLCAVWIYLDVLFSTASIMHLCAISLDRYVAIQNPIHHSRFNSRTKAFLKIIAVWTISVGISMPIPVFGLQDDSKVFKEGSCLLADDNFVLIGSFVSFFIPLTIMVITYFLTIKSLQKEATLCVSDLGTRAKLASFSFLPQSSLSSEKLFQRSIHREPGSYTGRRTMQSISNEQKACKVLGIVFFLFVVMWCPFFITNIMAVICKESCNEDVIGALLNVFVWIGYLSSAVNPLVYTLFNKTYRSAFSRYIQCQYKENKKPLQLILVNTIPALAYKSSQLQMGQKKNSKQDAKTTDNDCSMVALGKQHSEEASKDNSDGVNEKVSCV

| SMILES | Ki [1] | Ki [2] | Ki [3, 4] | melting point | Ki [3] |
| --- | --- | --- | --- | --- | --- |
| CC(=O)N[C@H]1CC[C@H](CCN2CCN(c3nc(C)cc4occc34)CC2)CC1 [Example 96, trans-N-(4-{2-[4-(6-Methyl-furo[3,2-c]pyridin-4-yl)-piperazin-1-yl]-ethyl}-cyclohexyl)-acetamide] | 249 nM | 4.64 nM | 75.2 nM | 207.5 °C |  |
| Cc1cc2occc2c(N2CCN(CC[C@H]3CC[C@H](NC(=O)C4CCOCC4)CC3)CC2)n1 [Example 97, trans-Tetrahydro-pyran-4-carboxylic acid (4-{2-[4-(6-methyl-furo[3,2-c]pyridin-4-yl)-piperazin-1-yl]-ethyl}-cyclohexyl)-amide] | 275 nM | 14.2 nM |  | 219 °C | 25.5 nM |
| Cc1cc2occc2c(N2CCN(CC[C@H]3CC[C@H](NC(=O)CC4CCOCC4)CC3)CC2)n1 [Example 98, trans-N-(4-{2-[4-(6-Methyl-furo[3,2-c]pyridin-4-yl)-piperazin-1-yl]-ethyl}-cyclohexyl)-2-(tetrahydro-pyran-4-yl)-acetamide] | 641 nM | 9.45 nM | 75.9 nM | 212.5 °C |  |
| COCCC(=O)N[C@H]1CC[C@H](CCN2CCN(c3nc(C)cc4occc34)CC2)CC1 [Example 99, trans-3-Methoxy-N-(4-{2-[4-(6-methyl-furo[3,2-c]pyridin-4-yl)-piperazin-1-yl]-ethyl}-cyclohexyl)-propionamide] | 430 nM | 4.8 nM | 86.9 nM | 158 °C |  |
| CC(=O)N[C@H]1CC[C@H](CCN2CCN(c3nc(C)cc4c3CCO4)CC2)CC1 [Example 100, trans-N-(4-{2-[4-(6-Methyl-2,3-dihydro-furo[3,2-c]pyridin-4-yl)-piperazin-1-yl]-ethyl}-cyclohexyl)-acetamide] | 915 nM | 7.58 nM | 215 nM | 217.5 °C |  |
| Cc1cc2c(c(N3CCN(CC[C@H]4CC[C@H](NC(=O)C5CCOCC5)CC4)CC3)n1)CCO2 [Example 101, Tetrahydro-pyran-4-carboxylic acid trans-(4-{2-[4-(6-methyl-2,3-dihydro-furo[3,2-c]pyridin-4-yl)-piperazin-1-yl]-ethyl}-cyclohexyl)-amide] | 1950 nM | 34.6 nM | 58.5 nM | 234.5 °C |  |
| Cc1cc2c(c(N3CCN(CC[C@H]4CC[C@H](NC(=O)CC5CCOCC5)CC4)CC3)n1)CCO2 [Example 102, trans-N-(4-{2-[4-(6-Methyl-2,3-dihydro-furo[3,2-c]pyridin-4-yl)-piperazin-1-yl]-ethyl}-cyclohexyl)-2-(tetrahydro-pyran-4-yl)-acetamide] | 1940 nM | 18.7 nM | 193 nM | 218.5 °C |  |
| COCCC(=O)N[C@H]1CC[C@H](CCN2CCN(c3nc(C)cc4c3CCO4)CC2)CC1 [Example 103, trans-3-Methoxy-N-(4-{2-[4-(6-methyl-2,3-dihydro-furo[3,2-c]pyridin-4-yl)-piperazin-1-yl]-ethyl}-cyclohexyl)-propionamide] | 1490 nM | 11.8 nM | 255 nM | 178.5 °C |  |
| CC(=O)N[C@H]1CC[C@H](CCN2CCN(c3ncc(C)c4occc34)CC2)CC1 [Example 104, trans-N-(4-{2-[4-(7-Methyl-furo[3,2-c]pyridin-4-yl)-piperazin-1-yl]-ethyl}-cyclohexyl)-acetamide] | 1460 nM | 21.5 nM | 13.7 nM | 208 °C |  |
| Cc1cnc(N2CCN(CC[C@H]3CC[C@H](NC(=O)C4CCOCC4)CC3)CC2)c2ccoc12 [Example 105, trans-Tetrahydro-pyran-4-carboxylic acid (4-{2-[4-(7-methyl-furo[3,2-c]pyridin-4-yl)-piperazin-1-yl]-ethyl}-cyclohexyl)-amide] | 1130 nM | 72.7 nM |  | 228 °C | 5.67 nM |
| Cc1cnc(N2CCN(CC[C@H]3CC[C@H](NC(=O)CC4CCOCC4)CC3)CC2)c2ccoc12 [Example 106, trans-N-(4-{2-[4-(7-Methyl-furo[3,2-c]pyridin-4-yl)-piperazin-1-yl]-ethyl}-cyclohexyl)-2-(tetrahydro-pyran-4-yl)-acetamide] | 2720 nM | 38 nM | 11.7 nM | 205.5 °C |  |
| COCCC(=O)N[C@H]1CC[C@H](CCN2CCN(c3ncc(C)c4occc34)CC2)CC1 [Example 107, trans-3-Methoxy-N-(4-{2-[4-(7-methyl-furo[3,2-c]pyridin-4-yl)-piperazin-1-yl]-ethyl}-cyclohexyl)-propionamide] | 2470 nM | 30 nM | 12 nM | 177 °C |  |
| CC(=O)N[C@H]1CC[C@H](CCN2CCN(c3ncc(C)c4c3CCO4)CC2)CC1 [Example 108, trans-N-(4-{2-[4-(7-Methyl-2,3-dihydro-furo[3,2-c]pyridin-4-yl)-piperazin-1-yl]-ethyl}-cyclohexyl)-acetamide] | 2310 nM | 48.2 nM | 67.5 nM | 196.5 °C |  |
| Cc1cnc(N2CCN(CC[C@H]3CC[C@H](NC(=O)C4CCOCC4)CC3)CC2)c2c1OCC2 [Example 109, Tetrahydro-pyran-4-carboxylic acid trans-(4-{2-[4-(7-methyl-2,3-dihydro-furo[3,2-c]pyridin-4-yl)-piperazin-1-yl]-ethyl}-cyclohexyl)-amide] | 4510 nM | 98.7 nM | 19.7 nM | 223.5 °C |  |
| Cc1cnc(N2CCN(CC[C@H]3CC[C@H](NC(=O)CC4CCOCC4)CC3)CC2)c2c1OCC2 [Example 110, trans-N-(4-{2-[4-(7-Methyl-2,3-dihydro-furo[3,2-c]pyridin-4-yl)-piperazin-1-yl]-ethyl}-cyclohexyl)-2-(tetrahydro-pyran-4-yl)-acetamide] | 2950 nM | 69.4 nM | 44 nM | 199 °C |  |
| COCCC(=O)N[C@H]1CC[C@H](CCN2CCN(c3ncc(C)c4c3CCO4)CC2)CC1 [Example 111, trans-3-Methoxy-N-(4-{2-[4-(7-methyl-2,3-dihydro-furo[3,2-c]pyridin-4-yl)-piperazin-1-yl]-ethyl}-cyclohexyl)-propionamide] | 3560 nM | 46.8 nM | 37 nM | 163.5 °C |  |
| COC(CC(=O)N[C@H]1CC[C@H](CCN2CCN(c3nccc4c3CCO4)CC2)CC1)OC [Example 113, trans-N-(4-{2-[4-(2,3-Dihydro-furo[3,2-c]pyridin-4-yl)-piperazin-1-yl]-ethyl}-cyclohexyl)-3,3-dimethoxy-propionamide] | 1380 nM | 19.3 nM | 15.7 nM | 220 °C |  |
| COC(CCC(=O)N[C@H]1CC[C@H](CCN2CCN(c3nccc4c3CCO4)CC2)CC1)OC [Example 114, trans-N-(4-{2-[4-(2,3-Dihydro-furo[3,2-c]pyridin-4-yl)-piperazin-1-yl]-ethyl}-cyclohexyl)-4,4-dimethoxy-butyramide] | 2370 nM | 68 nM | 18.1 nM | 205.5 °C |  |
| CS(=O)(=O)c1ccc(C(=O)N[C@H]2CC[C@H](CCN3CCN(c4nccc5c4CCO5)CC3)CC2)s1 [Example 115, 5-Methanesulfonyl-thiophene-2-carboxylic acid trans-(4-{2-[4-(2,3-dihydro-furo[3,2-c]pyridin-4-yl)-piperazin-1-yl]-ethyl}-cyclohexyl)-amide] | 516 nM | 33.8 nM | 9.46 nM | 229 °C |  |
| N#Cc1ccc(C(=O)N[C@H]2CC[C@H](CCN3CCN(c4nccc5c4CCO5)CC3)CC2)cc1 [Example 117, trans-4-Cyano-N-(4-{2-[4-(2,3-dihydro-furo[3,2-c]pyridin-4-yl)-piperazin-1-yl]-ethyl}-cyclohexyl)-benzamide] | 381 nM | 28 nM | 13 nM | 243.5 °C |  |
| CN1CCN(c2ccc(C(=O)N[C@H]3CC[C@H](CCN4CCN(c5nccc6c5CCO6)CC4)CC3)cc2)CC1 [Example 118, trans-N-(4-{2-[4-(2,3-Dihydro-furo[3,2-c]pyridin-4-yl)-piperazin-1-yl]-ethyl}-cyclohexyl)-4-(4-methyl-piperazin-1-yl)-benzamide] | 180 nM | 14.7 nM | 4.51 nM | 236 °C |  |
| O=C(N[C@H]1CC[C@H](CCN2CCN(c3nccc4c3CCO4)CC2)CC1)c1ccc(N2CCOCC2)nc1 [Example 119, trans-N-(4-{2-[4-(2,3-Dihydro-furo[3,2-c]pyridin-4-yl)-piperazin-1-yl]-ethyl}-cyclohexyl)-6-morpholin-4-yl-nicotinamide] | 998 nM | 44.7 nM |  | 222 °C | 15.6 nM |
| O=C(N[C@H]1CC[C@H](CCN2CCN(c3nccc4c3CCO4)CC2)CC1)c1ccc(-c2cccnc2)cc1 [Example 120, trans-N-(4-{2-[4-(2,3-Dihydro-furo[3,2-c]pyridin-4-yl)-piperazin-1-yl]-ethyl}-cyclohexyl)-4-pyridin-3-yl-benzamide] | 223 nM | 16.1 nM | 12.3 nM | 218 °C |  |
